Measurements reported in PubChem BioAssay AID720665 (NMMLSC, 2013).
Results filed as inconclusive are left out. Activity calls are given as the source filed them.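 The calls were made as follows: active = inhibition of the calcium rise above 50%; inconclusive = dimming of resting cell dye signal by over 25%; inactive = inhibition below 50%.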

Tested on: TALL-104 thapsigargin calcium, Fura Red flow cytometry
Test: inhibitors of thapsigargin-evoked calcium rise, mechanism study for lytic granule exocytosis inhibitor project, Fura Red, TALL-104 cells, CherryPick01 (AID 720665)
Conditions: stronger effect = higher value; dose or concentration not given here

Fc1ccc(/C=C\c2nccc3c2[nH]c2ccccc23)cc1
inhibition: 37.7% (inactive)

O=C(CN1C(=O)/C(=C\c2cccc(Br)c2)Oc2ccccc21)NCCCN1CCOCC1
inhibition: 1% (inactive)
